Laboratory results: paper PMC9479156 (Frontiers in Pharmacology, 2022)

Tests used:
[1] = test system: A549 human lung carcinoma; assay: MTT cytotoxicity assay A549; type: cell-based; conditions: for IC50: Homo sapiens, A549, MTT, 72 h, ± SD, read-out: IC50 A549
Experimental: (§1) Proliferative and non-proliferative mammalian cell lines: human liver and lung cancer cell lines HepG2 and A549, and immortalized normal liver LO2 and lung BEAS-2B cells were purchased from ATCC (Manassas, VA, United States). Cells were cultured in RPMI-1640 medium supplemented with 10% fetal bovine serum and antibiotics penicillin (50 U/mL) and streptomycin (50 μg/ml; Invitrogen, United Kingdom). All cells were incubated at 37°C in a 5% humidified CO2 incubator.
(§2) All test compounds were dissolved in DMSO at a final concentration of 50 mM and stored at −20°C before use. Cytotoxicity was assessed with A549, HepG2, BEAS-2B and LO2 cells. The MTT assay with 3-(4,5-dimethylthiazole-2yl)-2,5-diphenyltetrazolium bromide (5 mg/ml) was performed as previously described ([Ng et al., 2022]). Briefly, 4 × 10^3 cells per well were seeded in 96-well plates before drug treatment. After overnight cell culture, the cells were exposed to different concentrations of selected compounds (0.19–100 μM) for 72 h. Cells without drug treatment were used as control. Next, 10 μl of the MTT solution was added to each well and incubated at 37°C for another 4 h. Solubilization buffer (100 μl) was then added (10 mM HCl in a solution of 10% of SDS) and incubated overnight. The absorbance A at 570 nm was measured on the next day. The percentage of cell viability was calculated using the following formula: Cell viability (%) = Atreated/Acontrol × 100. Dose response curves for all assays are given in the Supplementary Figures S3–S6.
(§3) Cytotoxicity was assessed for each of artemisinin, DHA and artemether, and the amino-artemisinins artemiside and artemisone, and celastrol against A549 human lung carcinoma, BEAS-2B non-tumorigenic human bronchial epithelium, HepG2 liver hepatocellular carcinoma and LO2 human normal hepatocytes using the MTT assay ([Ng et al., 2022]). Data are presented in Table 4, and dose response curves are given in the Supplementary Figures S3–S6.

[2] = test system: BEAS-2B non-tumorigenic human bronchial epithelium; assay: MTT cytotoxicity assay BEAS-2B; type: cell-based; conditions: MTT, 72 h, ± SD, read-out: IC50 BEAS-2B
Experimental: as §1, §2, §3

[3] = test system: HepG2 liver hepatocellular carcinoma; assay: MTT cytotoxicity assay HepG2; type: cell-based, human; conditions: for IC50: Homo sapiens, HepG2, MTT, 72 h, ± SD, read-out: IC50 HepG2; for SI, selectivity index IC50 normal cell line/IC50 tumour cell line: LO2/HepG2
Experimental: as §1, §2, §3

[4] = test system: LO2 human normal hepatocytes; assay: MTT cytotoxicity assay LO2; type: cell-based; conditions: Hepatocyte, MTT, 72 h, ± SD, read-out: IC50 LO2
Experimental: as §1, §2, §3

[5] = test system: asexual blood stage P. falciparum NF54 (drug sensitive); design: method as in Coertzen et al., 2018; Wong et al., 2019; conditions: SYBR Green I, mean ± SEM, ref Coertzen et al., 2018, Wong et al., 2019; cited from earlier work
[6] = test system: asexual blood stage P. falciparum K1 (multidrug resistant); conditions: ref Coertzen et al., 2018, Wong et al., 2019, cited from earlier work; for IC50: asexual blood stage, SYBR Green I, mean ± SEM
[7] = test system: asexual blood stage P. falciparum W2 (multidrug resistant); design: method as in Coertzen et al., 2018; Wong et al., 2019; conditions: ref Coertzen et al., 2018, Wong et al., 2019, cited from earlier work; for IC50: asexual blood stage, SYBR Green I, mean ± SEM
[8] = test system: immature stage II-III P. falciparum NF54 gametocytes; design: method as in Coertzen et al., 2018, Wong et al., 2019; conditions: ref Coertzen et al., 2018, Wong et al., 2019, cited from earlier work; for IC50: NF54 gametocytes, luciferase, 48 h, mean ± SEM, read-out: Immature stage II-III (luc 48 h) IC50; for Fold change preference ratio EG to LG: immature vs late stage gametocytes
[9] = test system: late stage IV-V P. falciparum NF54 gametocytes; design: method as in Coertzen et al., 2018, Wong et al., 2019; conditions: ref Coertzen et al., 2018, Wong et al., 2019, cited from earlier work; for IC50: NF54 gametocytes, luciferase, 72 h, mean ± SEM, read-out: Late stage IV-V (luc 72 h) IC50; for Fold change preference ratio LG to EG: late vs immature stage gametocytes
[10] = test system: HepG2 liver hepatocellular carcinoma; assay: Cytotoxicity drug combination (isobole) assay HepG2; type: cell-based, human
Experimental: (§4) For the drug combination inhibitory assays, six drug preparations, of which four comprised combinations of either artemiside or artemisone with celastrol in a fixed ratio of 80:20, 60:40, 40:60, and 20:80 were prepared and screened against HepG2 liver hepatocellular carcinoma and LO2 human normal hepatocytes respectively. Two of these six preparations employed each of artemiside, artemisone or celastrol alone at a concentration approximately 5–7 times higher than the IC50 of the individual drug as presented in Table 4. […] Thus, six combinations for artemiside (µM) and celastrol (µM) prepared were 500:0, 400:4, 300:8, 200:12, 100:16, and 0:20, respectively.
(§5) As above for the malaria combination assays, a mean ΣFIC<1.0 represents a synergistic interaction, >1.3 represents an antagonistic interaction and ΣFIC = 1 represents an indifferent or additive interaction. Additivity, synergism and antagonism were also be established from the linear plots constructed from the FIC values of each of the drugs. A concave hyperbolic plot indicates synergism, a convex hyperbolic plot indicates an antagonistic interaction, and a straight line indicates an additive interaction. Isobole analysis of the combinations of each of artemiside and artemisone in combination with celastrol was performed against HepG2 and LO2 cells respectively. In Figure 5 is presented the isoboles for each drug combination.
(§6) Next, combinations of each of artemiside and artemisone with celastrol were examined, according to the method used to establish additivity/synergism described above. […] Against the normal hepatocyte LO2 cell line, whilst the interaction of artemisone with celastrol was synergistic, that of artemiside was additive. Synergism and additivity were also evident from the linear plots determined from the FIC values of each of the drugs (Table 5 and Figure 6). Thus, synergism is confirmed for combinations of the amino-artemisinins with celastrol against the HepG2 carcinoma cell line, and for artemisone-celastrol against human normal hepatocyte LO2.

[11] = test system: LO2 human normal hepatocytes; assay: Cytotoxicity drug combination (isobole) assay LO2; type: cell-based
Experimental: as §4, §5, §6

Structure (SMILES)	IC50 [1] [nM]	IC50 [2] [nM]	IC50 [3] [nM]	IC50 [4] [nM]	IC50 [5] [nM]	IC50 [6] [nM]	RI (resistance index) = IC50 K1/IC50 NF54 [6]	IC50 [7] [nM]	RI = IC50 W2/IC50 NF54 [7]	IC50 [8] [nM]	Fold change preference ratio EG to LG [8]	IC50 [9] [nM]	Fold change preference ratio LG to EG [9]	SI, selectivity index IC50 normal cell line/IC50 tumour cell line [3]	also measured
C[C@@H]1CC[C@H]2[C@@H](C)C(O)O[C@@H]3O[C@@]4(C)CC[C@@H]1[C@]32OO4 (stereo partly drawn) [DHA]	62600 ± 3400	21200 ± 1400	> 100000	30700 ± 2200	2.51 ± 0.19	1.51 ± 0.33	0.6	1.74 ± 0.22	0.7	43 ± 3.9	0.78	33.7 ± 1.98	1.3	–	–
C[C@H]1[C@H](OC(=O)CCC(=O)O)O[C@@H]2O[C@@]3(C)CC[C@H]4[C@H](C)CC[C@@H]1[C@@]24OO3 [Artesunate, artesunate]	–	–	–	–	3 ± 0.29	4 ± 1	–	2.4 ± 0.4	–	62.8 ± 3	–	259 ± 80	–	–	–
CO[C@H]1O[C@@H]2O[C@@]3(C)CC[C@H]4[C@H](C)CC[C@@H]([C@H]1C)[C@@]24OO3 [Artemether, artemether]	> 100000	> 100000	1020 ± 200	> 100000	1.86 ± 0.17	9 ± 2	4.8	7 ± 1	3.8	37.7 ± 2	3.6	136 ± 85.9	0.28	>98	–
C[C@@H]1CC[C@H]2[C@@H](C)C(=O)O[C@@H]3O[C@@]4(C)CC[C@@H]1[C@]32OO4 [Artemisinin, artemisinin, reference compound]	> 100000	> 100000	> 100000	> 100000	–	–	–	–	–	–	–	–	–	–	–
C[C@H]1[C@H](N2CCSCC2)O[C@@H]2O[C@@]3(C)CC[C@H]4[C@H](C)CC[C@@H]1[C@@]24OO3 [Artemiside, artemiside]	> 100000	32100 ± 2700	550 ± 20	> 100000	1.11 ± 0.17	1.6 ± 0.4	1.47	1.75 ± 0.27	1.58	16.4 ± 1	0.09	1.5 ± 0.5	10.9	>183	SI, selectivity index IC50 normal cell line/IC50 tumour cell line ([1]; BEAS-2B/A549): <0.3; SI, selectivity index IC50 normal cell line/IC50 tumour cell line ([3]; listed as artemiside): > 170; FIC ([10]; artemiside:celastrol drug ratio 20:80, HepG2): 0.16; FIC ([10]; artemiside:celastrol drug ratio 40:60, HepG2): 0.42; FIC ([10]; artemiside:celastrol drug ratio 60:40, HepG2): 0.4; FIC ([10]; artemiside:celastrol drug ratio 80:20, HepG2): 0.57; FIC ([11]; artemiside:celastrol drug ratio 20:80, LO2): 0.09; FIC ([11]; artemiside:celastrol drug ratio 40:60, LO2): 0.33; FIC ([11]; artemiside:celastrol drug ratio 60:40, LO2): 0.45; FIC ([11]; artemiside:celastrol drug ratio 80:20, LO2): 0.59
